Reference: PubChem BioAssay (NCI)
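Here, GI50 denotes the concentration required for 50% inhibition of growth. TGI: concentration producing complete growth inhibition.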

Experiments:
Assay in all cases: inhibition of tumour cell growth, NCI panel, 384-well format
OVCAR-5 ovarian = test system: OVCAR-5 ovarian
SK-OV-3 ovarian = test system: SK-OV-3 ovarian
A498 renal = test system: A498 renal
SF-268 CNS = test system: SF-268 CNS
SK-MEL-2 melanoma = test system: SK-MEL-2 melanoma
MALME-3M melanoma = test system: MALME-3M melanoma
OVCAR-8 ovarian = test system: OVCAR-8 ovarian
KM12 colon = test system: KM12 colon
MOLT-4 leukemia = test system: MOLT-4 leukemia
SF-295 CNS = test system: SF-295 CNS
HCT-15 colon = test system: HCT-15 colon
MDA-MB-231 breast = test system: MDA-MB-231 breast
CAKI-1 renal = test system: CAKI-1 renal
NCI-H23 lung = test system: NCI-H23 lung
ACHN renal = test system: ACHN renal
T-47D breast = test system: T-47D breast
UACC-62 melanoma = test system: UACC-62 melanoma
HOP-62 NSCLC = test system: HOP-62 NSCLC
HT29 colon = test system: HT29 colon
RPMI-8226 leukemia = test system: RPMI-8226 leukemia
K-562 leukemia = test system: K-562 leukemia
SK-MEL-5 melanoma = test system: SK-MEL-5 melanoma
SN12C renal = test system: SN12C renal
SR leukemia = test system: SR leukemia
HS 578T breast = test system: HS 578T breast
DU-145 prostate = test system: DU-145 prostate
RXF 393 renal = test system: RXF 393 renal
EKVX NSCLC = test system: EKVX NSCLC
BT-549 breast = test system: BT-549 breast
MDA-MB-468 breast = test system: MDA-MB-468 breast
SK-MEL-28 melanoma = test system: SK-MEL-28 melanoma
HCC-2998 colon = test system: HCC-2998 colon
PC-3 prostate = test system: PC-3 prostate
U251 glioblastoma = test system: U251 glioblastoma
HOP-92 NSCLC = test system: HOP-92 NSCLC
NCI/ADR-RES ovarian = test system: NCI/ADR-RES ovarian
SNB-75 CNS = test system: SNB-75 CNS
NCI-H322M lung = test system: NCI-H322M lung
NCI-H522 lung = test system: NCI-H522 lung
SW-620 colon = test system: SW-620 colon
UACC-257 melanoma = test system: UACC-257 melanoma
OVCAR-3 ovarian = test system: OVCAR-3 ovarian
HL-60(TB) leukemia = test system: HL-60(TB) leukemia
LOX IMVI melanoma = test system: LOX IMVI melanoma
M14 melanoma = test system: M14 melanoma
COLO 205 colon = test system: COLO 205 colon
MDA-MB-435 melanoma = test system: MDA-MB-435 melanoma
MCF7 breast = test system: MCF7 breast
TK-10 renal = test system: TK-10 renal
UO-31 renal = test system: UO-31 renal
SF-539 CNS = test system: SF-539 CNS
786-0 renal = test system: 786-0 renal
SNB-19 CNS = test system: SNB-19 CNS
HCT-116 colon = test system: HCT-116 colon
NCI-H460 NSCLC = test system: NCI-H460 NSCLC
NCI-H226 lung = test system: NCI-H226 lung
IGROV1 ovarian = test system: IGROV1 ovarian
A549 NSCLC = test system: A549 NSCLC
CCRF-CEM leukemia = test system: CCRF-CEM leukemia
OVCAR-4 ovarian = test system: OVCAR-4 ovarian

## O=C(Cc1ccccc1)Nc1nnc(CCSCCc2nnc(NC(=O)Cc3ccccc3)s2)s1
OVCAR-5 ovarian
  GI50: 16.7 µM
  TGI: > 100 µM
SK-OV-3 ovarian
  GI50: 15.5 µM
  TGI: 40.4 µM
A498 renal
  GI50: 3.13 µM
  TGI: 11.9 µM
SF-268 CNS
  GI50: 2.16 µM
  TGI: 9.86 µM
SK-MEL-2 melanoma
  GI50: 3.07 µM
  TGI: 10.7 µM
MALME-3M melanoma
  GI50: 16.1 µM
  TGI: 45.5 µM
OVCAR-8 ovarian
  GI50: 4.38 µM
  TGI: 17.9 µM
KM12 colon
  GI50: 1.94 µM
  TGI: > 100 µM
MOLT-4 leukemia
  GI50: > 39.2 µM
  TGI: > 100 µM
SF-295 CNS
  GI50: 9.57 µM
  TGI: 26.4 µM
HCT-15 colon
  GI50: > 100 µM
  TGI: > 100 µM
MDA-MB-231 breast
  GI50: 3.07 µM
  TGI: 28.9 µM
CAKI-1 renal
  GI50: 8.03 µM
  TGI: > 41 µM
NCI-H23 lung
  GI50: 16.1 µM
  TGI: 39.7 µM
ACHN renal
  GI50: > 30 µM
  TGI: > 100 µM
T-47D breast
  GI50: 27.3 µM
  TGI: > 88.3 µM
UACC-62 melanoma
  GI50: 8.39 µM
  TGI: 31.1 µM
HOP-62 NSCLC
  GI50: 2.92 µM
  TGI: 11.9 µM
HT29 colon
  GI50: > 100 µM
  TGI: > 100 µM
RPMI-8226 leukemia
  GI50: 1.42 µM
K-562 leukemia
  GI50: 10.1 µM
  TGI: > 100 µM
SK-MEL-5 melanoma
  GI50: 10.4 µM
  TGI: 52.5 µM
SN12C renal
  GI50: 3.29 µM
  TGI: 19.5 µM
SR leukemia
  GI50: 0.544 µM
  TGI: > 100 µM
HS 578T breast
  GI50: 0.9 µM
  TGI: 3.37 µM
DU-145 prostate
  GI50: 14 µM
  TGI: > 100 µM
RXF 393 renal
  GI50: 1.42 µM
  TGI: 4.88 µM
EKVX NSCLC
  GI50: 17.2 µM
  TGI: > 92.9 µM
BT-549 breast
  GI50: 9.85 µM
  TGI: 30.5 µM
MDA-MB-468 breast
  GI50: 29.7 µM
  TGI: > 83.2 µM
SK-MEL-28 melanoma
  GI50: 21.7 µM
  TGI: > 61.2 µM
HCC-2998 colon
  GI50: 39.7 µM
  TGI: > 100 µM
PC-3 prostate
  GI50: 13.4 µM
  TGI: 35 µM
U251 glioblastoma
  GI50: 3.13 µM
  TGI: 21.4 µM
HOP-92 NSCLC
  GI50: 3.05 µM
  TGI: 14.8 µM
NCI/ADR-RES ovarian
  GI50: > 100 µM
  TGI: > 100 µM
SNB-75 CNS
  GI50: 8.91 µM
  TGI: 27.2 µM
NCI-H322M lung
  GI50: 0.393 µM
  TGI: 2.21 µM
NCI-H522 lung
  GI50: 2.92 µM
  TGI: 15.1 µM
SW-620 colon
  GI50: > 60.9 µM
  TGI: > 100 µM
UACC-257 melanoma
  GI50: 13.5 µM
  TGI: > 76.6 µM
OVCAR-3 ovarian
  GI50: 7.24 µM
  TGI: > 60.5 µM
HL-60(TB) leukemia
  GI50: 28.3 µM
  TGI: > 100 µM
LOX IMVI melanoma
  GI50: 3.99 µM
  TGI: 23.1 µM
M14 melanoma
  GI50: > 43.4 µM
  TGI: > 88.8 µM
COLO 205 colon
  GI50: > 100 µM
  TGI: > 100 µM
MDA-MB-435 melanoma
  GI50: 30 µM
  TGI: > 100 µM
MCF7 breast
  GI50: > 28.5 µM
  TGI: > 75.1 µM
TK-10 renal
  GI50: 18 µM
  TGI: 62.2 µM
UO-31 renal
  GI50: 46 µM
  TGI: > 100 µM
SF-539 CNS
  GI50: 3.16 µM
  TGI: 18.2 µM
786-0 renal
  GI50: 2.27 µM
  TGI: 8.96 µM
SNB-19 CNS
  GI50: 19.4 µM
  TGI: 48 µM
HCT-116 colon
  GI50: > 72.6 µM
  TGI: > 100 µM
NCI-H460 NSCLC
  GI50: 10.8 µM
  TGI: > 100 µM
NCI-H226 lung
  GI50: 7.56 µM
  TGI: 31.3 µM
IGROV1 ovarian
  GI50: 29.1 µM
  TGI: > 94 µM
A549 NSCLC
  GI50: 1.06 µM
  TGI: 5.54 µM
CCRF-CEM leukemia
  GI50: 11.6 µM
  TGI: > 100 µM
OVCAR-4 ovarian
  GI50: 13.2 µM
  TGI: 40.5 µM
